US10806743B1, “Method of administering lactitol to reduce plasma concentration of lactitol” (Braintree Laboratories, Inc., priority 2017, dated 2020)

Experiments:
[1] = Fed v. fasted administration of lactitol: plasma lactitol pharmacokinetics (LC-MS/MS); type: in vivo, human
Experimental: A study was performed to determine the effects of food on absorption of lactitol. Sixteen subjects (8 males and 8 females) were randomized to either Sequence A (fed/fasted) and the other half to Sequence B (fasted/fed) on Day 1 prior to dosing. Subjects returned for Day 8 dosing, 7 days following dose at Day 1, to receive study drug following the opposite food sequence, have pharmacokinetic samples collected and safety procedures performed. A standard dinner was served approximately 6 hours following dose on Day 1 or Day 8. A nighttime snack was permitted, and a standard breakfast and lunch were served prior to discharge from the clinic.
No food was allowed prior to dosing; water was consumed up to one hour before dosing and then only after one hour after dosing. Subjects assigned to Sequence A (fed/fasted) received a high-calorie and high-fat meal for lunch at 11:30 AM, as described in Table 1. Subjects receiving the high fat high calorie lunch completed the meal within 30 minutes. Dose was administered 30 minutes after the start of the meal. Subjects assigned to Sequence B (fasted/fed) continued to fast prior to dose. The staff mixed the contents of two (2) packets (approximately 21 g) with 8 oz of water. Subjects consumed the dose over 5 to 10 minutes.
Doses were administered 30 minutes after the start of the meal. Subjects assigned to Sequence B (fasted/fed) continued to fast prior to dose. The CRU mixed the contents of two (2) packets (approximately 21 g) with 8 oz of water. Subjects consumed the dose over 5 to 10 minutes.
A high-fat (approximately 50 percent of total caloric content of the meal) and high-calorie (approximately 800 to 1000 calories) meal was used. Blood samples were collected prior to dosing and at 10, 20, 30 and 60 minutes (within +/−3 minutes) and then at 2, 4, 6, 8, 10, 12, 16, 18, 20 and 24 hours (within +/−30 minutes) following dose.
An LC-MS/MS method for the determination of lactitol concentrations in human plasma has been successfully developed and validated. The calibration range of the method is 25.0 to 10,000 ng/ml for lactitol using a 50 μl sample aliquot.

[2] = Adverse events in Phase 3 constipation studies; type: in vivo, human; conditions: Phase 3 studies, doses required for effective treatment of constipation
From the text: An Adverse Event (AE) is any untoward medical occurrence associated with the use of a drug in humans, whether or not considered drug related. An AE can therefore be any unfavorable and unintended sign (including a clinically significant abnormal laboratory finding), symptom, or disease temporally associated with the use of a medicinal (investigational) product.
These adverse reactions were transient and subsided rapidly upon dose adjustment or cessation.

[3] = estimated; cited from earlier work
[4] = system: plasma glucose; conditions: 25 grams, eight healthy male volunteers; cited from earlier work
[5] = system: calcium absorption; conditions: rats, diet containing 5% lactitol, two weeks; cited from earlier work
[6] = chronic idiopathic constipation; cited from earlier work

Row | Compound | % CV values for λz and λ1/2, fasted v. fed ([1]; fasted and fed conditions) | time of peak plasma concentration ([1]; fasted population) [h] | peak plasma concentration of lactitol ([1]; fasted population, approx. 21 g oral dose) [ng/mL] | average plasma concentration of lactitol ([1]; fasted population, hour 1, approx. 21 g oral dose) [ng/mL] | plasma concentration of lactitol ([1]; fasted population, hour 8) [ng/mL] | plasma concentration of lactitol ([1]; fasted population, hour 12 post-dose) [ng/mL] | plasma concentration of lactitol remained above ([1]; fasted population, until hour 8) | time of peak plasma concentration ([1]; fed population) [h] | peak plasma concentration of lactitol ([1]; fed population (dose 30 minutes after start of high-fat, high-calorie meal)) [ng/mL] | plasma concentration of lactitol ([1]; fed population, hour 8) [ng/mL] | plasma concentration of lactitol ([1]; fed population, hour 12 post-dose) [ng/mL] | AUC, fed population smaller than fasted population ([1]; fed v. fasted) [times] | peak concentration, fed compared with fasted population ([1]; fed v. fasted) | adverse events associated with administration [2] | fraction of an oral dose excreted in urine [3] [%] | rise in plasma glucose after ingestion [4] | calcium absorption [5] | incidence of most common adverse reactions (nausea, diarrhea, headache, abdominal pain, abdominal distention, flatulence) [6] [%]
1 | OC[C@@H](O)[C@@H](O[C@@H]1O[C@H](CO)[C@H](O)[C@H](O)[C@H]1O)[C@H](O)[C@@H](O)CO [lactitol] | similar | 4 | 2412 | 1193 | 935 | 218 | above 1000 ng/mL | 4 | 738.25 | 387.93 | 124.16 | 10 | more than three times smaller | flatulence, nausea, vomiting, abdominal cramping or pain and bloating | 0.6 | no rise in plasma glucose | significant increase | –
2 | CCCCC(F)(F)[C@@]1(O)CC[C@H]2[C@@H](CC(=O)[C@@H]2CCCCCCC(=O)O)O1 [Lubiprostone] | – | – | – | – | – | – | – | – | – | – | – | – | – | – | – | – | – | > 4
